Reference: patent publication US20150018411A1, “COMPOUNDS AS PPAR BETA/DELTA INHIBITORS FOR TREATING PPAR BETA/DELTA-MEDIATED DISEASES” (PHILIPPS-UNIVERSITAT MARBURG, priority 2011, published 2015)

What was measured:
ANGPTL4 gene expression = assay: Stimulus-induced ANGPTL4 expression in human fibroblasts; assay type: cell-based
GST-PPAR beta/delta LBD = biological target: T1, GST-PPAR beta/delta LBD (Homo sapiens, UniProt Q03181); assay: Inhibition of agonist L165041-induced recruitment of co-activator peptide C33, TR-FRET; assay type: biochemical; details: 1 μM test substance, increasing concentrations of agonist L165041
T1 construct: GST-PPAR beta/delta LBD (GST=glutathione S-transferase); purchased Invitrogen, Darmstadt, Germany
T1 sequence (Q03181 211-439 limits assumed): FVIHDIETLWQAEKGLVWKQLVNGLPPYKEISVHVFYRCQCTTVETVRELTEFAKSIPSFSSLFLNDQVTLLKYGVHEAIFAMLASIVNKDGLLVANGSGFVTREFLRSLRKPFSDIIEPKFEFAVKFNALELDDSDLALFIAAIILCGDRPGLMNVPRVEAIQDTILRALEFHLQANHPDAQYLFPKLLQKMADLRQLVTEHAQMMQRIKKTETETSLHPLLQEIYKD
Experimental: FIG. 3: Inhibition of agonist-induced co-activator peptide binding (A) and inverse agonist compound 1-induced corepressor peptide binding (B) by the substance of this invention compound 5. • The recruitment of the co-activator or corepressor peptide, respectively, is determined in a TR-FRET assay. As co-activator peptide, C33 is utilized, as corepressor peptide SMRT-ID2. The experiment is performed with a constant concentration of 1 μM of the substance of this invention compound 5 and increasing concentrations of the agonist L165041 (A) or the inverse agonist compound 1 (B), respectively.
C) The inhibition of the recruitment of co-activator peptide C33 known to the expert in this field mediated by PPAR beta/delta agonist L165,041 or the inhibition of the inverse agonist inventive compound 1-mediated binding of the corepressor peptide SMRT-ID2 to GST-PPAR beta/delta LBD by the substance of this invention compound 5 (1 μM) was also determined by TR-FRET measurements. Both is shown in FIGS. 3 A and B in dependency of the concentration of the agonist (A) and the inverse agonist (B), respectively.

In the case of `CCCCCCNc1ccc(NS(=O)(=O)c2ccsc2C(=O)OC)c(OC)c1` [compound 1, methyl 3-(N-(4-(hexylamino)-2-methoxyphenyl)sulfamoyl)thiophene-2-carboxylate], the “induction of ANGPTL4 expression by TGF-beta1, TGF-beta2, dexamethasone or TPA” value (ANGPTL4 gene expression) was “significantly be reduced”.
For `COC(=O)c1sccc1S(=O)(=O)Nc1ccc(NC(C)(C)C)cc1OC` [compound 5, methyl 3-(N-(4-(tert-butylamino)-2-methoxyphenyl)sulfamoyl)thiophene-2-carboxylate], the “inhibition of agonist-induced recruitment of co-activator peptide C33” value (GST-PPAR beta/delta LBD) was “prevents”.
